Here are results for seven compounds from ChEMBL document CHEMBL5230106, “The wide-spectrum antimicrobial effect of novel N-alkyl monoquaternary ammonium salts and their mixtures; the QSAR study against bacteria” (Eur J Med Chem, 2020).

The source made the active and inactive calls. The calls are words filed in the database; no cut-off is given here.

One data set has as its system CHO-K1. Description: Cytotoxicity against CHO-K1 cells assessed as reduction in cell viability incubated for 24 hrs by MTT assay. It counts as toxicity, cell-based, Cricetulus griseus. To be noted: chinese hamster, cho-k1, 24 h.
Another data set has as its system Clostridioides difficile. The experiment in a line: Antibacterial activity against Clostridium difficile at 0.5 % measured after 8 mins by broth microdilution analysis. It counts as functional, organism-based.
Another data set relates to Aspergillus versicolor. The experiment in a line: Antifungal activity against Aspergillus versicolor EXF-8692 assessed as inhibition of fungal growth at 100 uM measured after 72 hrs. It counts as functional, organism-based.
Another data set concerns Penicillium chrysogenum. Description: Antifungal activity against Penicillium chrysogenum EXF-1818 assessed as inhibition of fungal growth at 100 uM measured after 72 hrs. It counts as functional, organism-based.
For another data set, the system named is Fusarium dimerum. Description: Antifungal activity against Fusarium dimerum EXF-8427 assessed as inhibition of fungal growth at 100 uM measured after 72 hrs. It counts as functional, organism-based.
In a further data set the test system is Aspergillus niger. Description: Antifungal activity against Aspergillus niger EXF-10185 assessed as inhibition of fungal growth at 100 uM measured after 72 hrs. It counts as functional, organism-based.
In a further data set the test system is Human alphaherpesvirus 3. Description: Antiviral activity against Varicella zoster-virus assessed as reduction factor at 0.005 % measured for 5 mins by crystal violet staining based microscopic analysis. It counts as functional.

Regarding `CCCCCCCCCCCC[N+]1(CCO)CCOCC1.[Br-]`, the Activity result in the data set with CHO-K1 is reported as “Toxic”. The outcome with Clostridioides difficile was Active.

With `CCCCCCCCCCCC[N+](C)(C)CCCCCCCC`, the result in the data set with Aspergillus versicolor, in the data set with Penicillium chrysogenum, in the data set on Clostridioides difficile, in the data set with Fusarium dimerum and in the data set on Aspergillus niger was Active.

Take `CCCCCCCCCCCCCC[N+]1(CCO)CCOCC1.[Br-]`: the Activity result in the data set with CHO-K1 is given as “Toxic”.

Consider `CCCCCCCCCCCCCCCC[n+]1cccc(OC)c1.[Br-]`, for which, in the data set on Human alphaherpesvirus 3, the “fold change (FC)” value stood at 4.68.

For the compound `CCCCCCCC[N+](C)(CCCCCCCC)Cc1ccccc1.[Br-]`, the “fold change (FC)” value in the data set on Human alphaherpesvirus 3 came to 3.84.

Consider `CCCCCCCCCCCCCCCC[N+](C)(C)CCCCCCCC.[Br-]`, for which, in the data set on Human alphaherpesvirus 3, the “fold change (FC)” value was 3.83.

As for `CCCCCCCCCCCCCCCC[N+]1(CCO)CCOCC1.[Br-]`, in the data set with CHO-K1, the Activity result is on record as “Toxic”.
